Key:
[1] = molecular target: T1, CDK8/Cyclin C (Homo sapiens) (UniProt P49336+P24863); test: Inhibition of Alexa647 tracer binding to full length recombinant human His-tagged CDK8/Cyclin C expressed in baculovirus expression system at 5 uM preincubated for 20 mins followed by tracer addition measured after 60 mins by TR-FRET based Lanthascreen assay relative to control
[2] = molecular target: T1, CDK8/Cyclin C (Homo sapiens); test: Inhibition of Alexa647 tracer binding to full length recombinant human His-tagged CDK8/Cyclin C expressed in baculovirus expression system at 1 uM preincubated for 20 mins followed by tracer addition measured after 60 mins by TR-FRET based Lanthascreen assay relative to control
[3] = molecular target: T1, CDK8/Cyclin C (Homo sapiens); test: Inhibition of Alexa647 tracer binding to full length recombinant human His-tagged CDK8/Cyclin C expressed in baculovirus expression system at 2.5 uM preincubated for 20 mins followed by tracer addition measured after 60 mins by TR-FRET based Lanthascreen assay relative to control
[4] = molecular target: CDK8/Cyclin C (Homo sapiens, UniProt P49336); test: Inhibition of Alexa647 tracer binding to full length recombinant human His-tagged CDK8/Cyclin C expressed in baculovirus expression system preincubated for 20 mins followed by tracer addition measured after 60 mins by TR-FRET based Lanthascreen assay
[5] = molecular target: T1, CDK8/Cyclin C (Homo sapiens); test: Inhibition of Alexa647 tracer binding to full length recombinant human His-tagged CDK8/Cyclin C expressed in baculovirus expression system at 0.5 uM preincubated for 20 mins followed by tracer addition measured after 60 mins by TR-FRET based Lanthascreen assay relative to control

Chain of CDK8/Cyclin C (P49336 whole entry): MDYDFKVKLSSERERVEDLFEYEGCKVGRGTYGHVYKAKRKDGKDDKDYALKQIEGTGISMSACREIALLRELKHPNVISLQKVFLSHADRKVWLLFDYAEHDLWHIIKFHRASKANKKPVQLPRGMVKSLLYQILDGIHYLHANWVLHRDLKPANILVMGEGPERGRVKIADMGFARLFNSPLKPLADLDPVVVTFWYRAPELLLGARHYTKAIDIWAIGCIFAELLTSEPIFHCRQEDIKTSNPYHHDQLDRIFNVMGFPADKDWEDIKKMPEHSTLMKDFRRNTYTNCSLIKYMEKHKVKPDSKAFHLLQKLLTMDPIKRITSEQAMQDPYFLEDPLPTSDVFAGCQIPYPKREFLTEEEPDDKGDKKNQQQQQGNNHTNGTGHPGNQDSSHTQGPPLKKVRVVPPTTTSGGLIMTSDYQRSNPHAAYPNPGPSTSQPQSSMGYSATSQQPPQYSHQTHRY
Chain of CDK8/Cyclin C (P24863 whole entry, further chain): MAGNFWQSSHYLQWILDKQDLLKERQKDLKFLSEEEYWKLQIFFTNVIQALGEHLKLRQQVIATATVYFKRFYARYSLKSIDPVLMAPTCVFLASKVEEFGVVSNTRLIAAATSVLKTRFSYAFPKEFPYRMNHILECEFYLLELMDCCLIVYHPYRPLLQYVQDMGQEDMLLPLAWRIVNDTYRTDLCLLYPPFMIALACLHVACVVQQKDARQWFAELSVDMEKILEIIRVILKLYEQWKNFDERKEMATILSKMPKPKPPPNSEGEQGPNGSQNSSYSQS

Compound | inhibition [1] | other results
O=C(NC1C2CS(=O)(=O)CC2NN1c1ccc(F)cc1)c1ccc(C(=O)c2ccccc2)cc1 (stereo not given) | 0% | –
CCOc1ccc(NC(=O)N2CCCC(c3cccc(C(=O)Nc4cccc(Cl)c4)c3)C2)cc1 (stereo not given) | 5% | –
Cc1ccc(Nc2cc(Nc3ccc(NC(=O)Nc4cccc(F)c4)cc3)nc(C)n2)cc1 | – | inhibition [2]: 5%
Cc1ccc(Cl)cc1N1CCN(c2ncnc3sc(C(=O)O)c(C)c23)CC1 | 75% | –
O=C1Nc2ccc(F)cc2/C1=N\Nc1ccc(C(=O)N2CCCC2COc2ccc(F)cc2)cc1 (stereo not given) | 3% | –
COc1ccc(CNC(=O)Cn2cnc3c(C(N)=O)nsc3c2=O)cc1 | 4% | –
COc1ccc(CNC(=O)C2CCCN(c3cnc4nccnc4c3)C2)cc1 (stereo not given) | 3% | –
CC(=O)c1ccc(NC(=O)COc2cc(-c3ccccc3)nc3ccc(F)cc23)cc1 | 10% | –
COc1ccc(C(=O)N2CCCN(c3ccc(NC(=O)Nc4cccc(C(F)(F)F)c4)cn3)CC2)cc1 | – | inhibition [2]: 82%
O=C(OCc1cc(=O)n2nc(C3CC3)sc2n1)c1ccc(NC(=O)c2cccc3ccccc23)cc1 | 0% | –
Cc1c(C(=O)Nc2ccc(-n3cnnn3)cc2)nnn1-c1ccc2noc(-c3ccccc3)c2c1 | – | inhibition [3]: -2%
C=CCNC(=O)C1CC(=O)N(c2ccc(OCC(=O)Nc3cccc(C(F)(F)F)c3)cc2)C1 (stereo not given) | – | inhibition [2]: 3%
Cc1ccc(-n2ncc(C(C)(C)C)c2NC(=O)CN(C)C(=O)Nc2ccccc2C)c(C)c1 | 13% | –
Cc1cccc(N2CCN(c3ncnc4onc(C)c34)CC2)c1C | 28% | –
COc1ccc(-n2nc(C(=O)NCC(=O)N3CCC(Cc4ccccc4)CC3)c3ccccc3c2=O)cc1 | 0% | –
Fc1ccc(N2CCN(c3ncnc4sc5c(c34)CCCC5)CC2)cc1 | 81% | –
CCC(=O)Nc1nc2cc(NC(=O)c3cc(-c4ccccc4)nc4c(C)cccc34)ccc2s1 | 0% | –
CCc1ccc(NC(=O)c2c(O)c3ccccc3n(CC)c2=O)cc1 | 46% | –
COc1ccc(OC)c(NC(=O)Nc2ccc(Cn3cnc(-c4nc(-c5ccc(F)cc5)no4)c3)cc2)c1 | 1% | –
Cc1ccc(NC(=O)CCc2nc3ccncc3[nH]2)cc1F | 7% | –
Cc1ccc(Cl)cc1N1CCN(C(=O)c2noc3ncnc(N4CCCC4)c23)CC1 | 4% | –
O=C(Nc1ccc2c(c1)OCCO2)c1cccc(Nc2cc(-c3ccc(F)cc3)ncn2)c1 | 4% | –
CCCc1c(C(=O)Nc2ccc(NC(C)=O)cc2)nnn1-c1ccc2noc(-c3ccccc3)c2c1 | 27% | –
CCc1nnc(NS(=O)(=O)c2ccc(NC(=O)Nc3ccc(Cl)c(Cl)c3)cc2)s1 | – | inhibition [2]: 59%
CSc1cccc(NC(=O)NC2CCN(c3ccc(F)cc3)C2=O)c1 (stereo not given) | 2% | –

Compound | inhibition [1] | other results
O=C(Nc1cccc(Cl)c1)Nc1nnc(CC(=O)N2CCCC2)s1 | – | inhibition [2]: 85%; IC50 [4]: 183 nM
CCCn1c(=O)oc2cc(NC(=O)Nc3cccc(C)c3)ccc21 | 18% | –
CC(=O)Nc1ccc(NC(=O)Cc2csc(NC(=O)Nc3cccc(Cl)c3)n2)cc1 | – | inhibition [2]: 13%
CC(=O)c1cccc(NC(=O)c2nnn(-c3ccc4noc(-c5ccccc5)c4c3)c2C)c1 | 80% | IC50 [4]: 93 nM
Cc1ccc2sc(NNC(=O)c3ccc(S(=O)(=O)CN4CCc5ccccc5C4)cc3)nc2c1C | 6% | –
Cc1nc(Nc2ccc(NC(=O)Nc3cccc(C(F)(F)F)c3)cc2)cc(N2CCCCC2)n1 | 97% | inhibition [5]: 61%
Cc1ccc(-c2nccc(Nc3cccc(C(=O)NCc4ccc(C(C)C)cc4)c3)n2)cc1 | 2% | –
CC(=O)Nc1ccc(NC(=O)c2nnn(-c3ccc4noc(-c5ccc(Cl)cc5)c4c3)c2C)cc1 | – | inhibition [3]: 4%
Cc1cc(C)c2c(n1)SCCN2C(=O)Nc1ccc(C(=O)NCc2cccc(Cl)c2)cc1 | 0% | –
CCOC(=O)c1c(C)oc2ncnc(NCCc3ccc(OCC)cc3)c12 | 9% | –
O=C(Cc1ccccc1F)Nc1ccc2ncnc(N3CCCC3)c2c1 | 14% | –
CN(C)c1ccc(CNC(=O)C2CCN(c3ccc4nncn4n3)CC2)cc1 | 0% | –
CCOC(=O)Cc1ccc(NC(=O)NC(C(=O)N2CCc3ccccc32)c2ccccc2)cc1 (stereo not given) | 16% | –
NNc1cc(N2CCN(c3ccccc3F)CC2)ncn1 | 3% | –
Cc1c(C(=O)Nc2cccc(C(F)(F)F)c2)nnn1-c1ccc2noc(-c3ccc(Cl)cc3)c2c1 | – | inhibition [3]: 19%
O=C(Nc1cccc(C(F)(F)F)c1)Nc1nnc(SCc2nc3ccccc3[nH]c2=O)s1 | – | inhibition [2]: 100%; IC50 [4]: 9 nM
O=C(Nc1ccco1)NC1CCN(c2ncnc3c2CCC3)C1 (stereo not given) | 15% | –
NC(=O)C1CC(=O)N(c2ccc(OCC(=O)Nc3cccc(C(F)(F)F)c3)cc2)C1 (stereo not given) | – | inhibition [2]: 12%
CC(=O)N1CCC2(CC1)CC(=O)c1ccc(OCC(=O)Nc3cccc(C(F)(F)F)c3)cc1O2 | 95% | inhibition [5]: 69%
Cc1nc(Nc2ccc(NC(=O)Nc3cccc(Cl)c3)cc2)cc(N2CCCCC2)n1 | – | inhibition [2]: 14%
O=C(Nc1ccc(Cl)cc1)N1CCCC(c2cccc(C(=O)N3CCC4(CC3)OCCO4)c2)C1 (stereo not given) | -3% | –
COc1cc(NC(=O)N2CCN(c3cc(-c4ccc(C)cc4)ncn3)CC2)cc(OC)c1 | -6% | –
COc1ccc(C(=O)NCc2nnc(SCC(=O)Nc3cccc(C(F)(F)F)c3)o2)cc1OC | – | inhibition [2]: 4%
O=C(CSc1ccc(N2CCCC(C(=O)NC3CC3)C2)nn1)Nc1cccc(C(F)(F)F)c1 (stereo not given) | – | inhibition [2]: 5%
Fc1ccc(-c2noc3ncnc(N4CCN(c5ccccn5)CC4)c23)cc1 | 19% | –

Compound | inhibition [1] | other results
CN[C@@H]1C[C@H]2O[C@@](C)([C@@H]1OC)n1c3ccccc3c3c4c(c5c6ccccc6n2c5c31)C(=O)NC4 | 99% | inhibition [5]: 100%
CC(=O)Nc1ccc(NC(=O)c2ccc3noc(-c4ccc(Cl)cc4)c3c2)cc1 | – | inhibition [3]: 43%
COc1cccc(NC(=O)CSc2nc3ccc(NC(=O)Nc4cc(C)cc(C)c4)cc3s2)c1 | 20% | –
CCOC(=O)Cc1ccc(NC(=O)Nc2cc3c(cc2N2CCCC2)n(CC)c(=O)n3CC)cc1 | 11% | –
CCNC(=O)c1cn(-c2ccc(SCC(=O)Nc3cccc(C(F)(F)F)c3)nn2)cn1 | – | inhibition [2]: 16%
Cc1ccc(N2Cc3c(ncnc3N3CCCC(C(=O)NCc4cccc(C(F)(F)F)c4)C3)N2)cc1 (stereo not given) | -7% | –
Cc1cc2nc(CSc3ccc(NC(=O)Nc4cccc(C(F)(F)F)c4)cc3)cc(=O)n2o1 | – | inhibition [2]: 59%
CC(=O)Nc1ccc(NC(=O)c2nnn(-c3ccc4noc(-c5ccccc5)c4c3)c2C)cc1 | – | inhibition [3]: 59%
O=C(NC1CCCc2ccccc21)C1CCN(C2=CN3C(C=C2)NNC3c2ccc(Cl)cc2)CC1 (stereo not given) | -2% | –
Cc1oc2ccccc2c1C(=O)CSc1nc(O)c2c(n1)NCN2 | 14% | –
CCc1ccc(-n2c(SCc3ccccc3C)nc3[nH]ncc3c2=O)cc1 | 10% | –
CCn1c(=O)c(=O)n(CC(=O)NCc2ccccc2)c2ccccc21 | -2% | –
CNc1nccc(N2CCC(CC(=O)NCc3nc4ccccc4n3C)CC2)n1 | 24% | –
Cc1c(C(=O)Nc2ccc3ccc(=O)oc3c2)nnn1-c1ccc2noc(-c3ccccc3)c2c1 | 52% | –
O=C(NCC1CCN(c2nsc(Cc3ccc(F)cc3)n2)CC1)Nc1ccc(Cl)c(Cl)c1 | 101% | inhibition [5]: 101%; IC50 [4]: 6.5 nM
O=C(Cc1ccc(NC(=O)N2CCSc3ncccc32)cc1)NCc1cccc(Cl)c1 | 14% | –
C=CCNC(=O)C1CCN(C(=O)Nc2ccc(NC(=O)Nc3cccc(F)c3)cc2)CC1 | – | inhibition [2]: 8%
CN1C(=O)c2ccccc2C(C(=O)Nc2ccc(S(=O)(=O)N3CCCCC3)cc2)C1c1cccs1 (stereo not given) | -6% | –
CC(=O)c1ccc(NC(=O)COc2cc(C(F)(F)F)c3c(C)nn(-c4ccc(C)cc4)c3n2)cc1 | -6% | –
O=C(Nc1cccc2ccccc12)c1cccc(C2CSC(S(=O)(=O)N3CCOCC3)C2)c1 (stereo not given) | -1% | –
COc1ccc(CC(=O)N2CCN(c3ccc(NC(=O)Nc4cccc(C(F)(F)F)c4)cc3)CC2)cc1 | 99% | inhibition [5]: 95%; IC50 [4]: 36 nM
Cc1ccc(-c2nc(C)cc(OCC(=O)Nc3ccc(C#N)cc3)n2)cc1 | -4% | –
O=C(Nc1c(C(=O)c2ccccc2)oc2ccccc12)c1cc(-c2ccc3c(c2)OCCO3)on1 | 18% | –
Cc1noc2ncnc(N3CCC(C(=O)NCCCN4CCOCC4)CC3)c12 | 1% | –
CCNc1c(NC(=O)NCc2ccc(C)cc2)c(=O)oc2ccccc12 | -3% | –
